Measurements: patent publication US20130150399A1, “INHIBITORS OF THE UNFOLDED PROTEIN RESPONSE AND METHODS FOR THEIR USE” (The Board of Trustees of the Leland Stanford Junior …, priority 2006, published 2013)

System: CHOP/GADD153
Assay: Western blot of CHOP/GADD153, hypoxic HT1080 cells
Assay type: cell-based, human
Conditions: 2.5 μM; hypoxia for 6-12 hours
Method: Cells (2×10^6) were cultured in 10-cm dishes, collected using a cell scraper at 4° C., and lysed by addition of 150 μl cell lysis buffer [50 mM Tris pH 7.4, 150 mM NaCl, 10% glycerol, 0.5% Triton X-100. 0.5% NP-40, 2 mM Na3VO4, 20 mM beta-glycerophosphate, 10 mM NaF, 1 mM DTT, 1 mM PMSF). Lysates were centrifuged for 5 min at 10,000×g, and proteins (˜40 μg) were resolved by SDS-PAGE followed by semi-dry transfer to nitrocellulose membranes. Membranes were blocked in TBS-5% milk supplemented with 0.1% Tween-20. The blots were then probed overnight with relevant antibodies, washed, and incubated for 2 hours with species-specific secondary antibodies conjugated to horseradish peroxidase. After washing in block solution, immunoreactive material was detected by enhanced chemiluminescence (SuperSignal West Dura Extended, Pierce, Inc., Rockville, Ill.).
A. Effect of irestatin 9389 on PERK and ATF6 pathways. […] Protein lysates were analyzed by Western blot analysis using antisera specific for ATF6 (top), CHOP/GADD153 (middle) or actin (bottom). […] Cells were harvested, counted, and allowed to grow under normal culture conditions for 11-12 days. […] D. Quantification of clonogenic survival assay. […] F. Quantification of TUNEL-positive cells. […] Cells were harvested at the indicated times and counted by hemocytometer. Values represent the mean calculated from triplicate experiments+/−SEM. […]

Compound: Cc1csc(NC(=O)CSc2nc3c(c(C(F)(F)F)c2C#N)CCC3)n1 [Compound 9389]
- expression of CHOP/GADD153: increased
